System: HCT-116
Assay: Cytotoxicity against human HCT116 cells after 72 hrs by MTS assay
Assay type: functional, cell-based
Settings: HCT-116, 72 h

Row | SMILES | IC50 [µM]
1 | CC(C)=CCC[C@]1(C)[C@@H](CC=C(C)C)C[C@@]2(CC=C(C)C)C(=O)c3c(oc4cc(O)c(O)cc4c3=O)[C@]1(CC=C(C)C)C2=O | 8
2 | CC(C)=CCC[C@]1(C)[C@@H](CC=C(C)C)C[C@]2(CC=C(C)C)C(=O)[C@@]1(CC=C(C)C)C(=O)c1c2oc2cc(O)c(O)cc2c1=O | 3

Reference: ChEMBL document CHEMBL3593183, “Polycyclic Polyprenylated Xanthones from Symphonia globulifera: Isolation and Biomimetic Electrosynthesis” (J Nat Prod, 2015)
